ChEMBL document CHEMBL2203093, “EC144 is a potent inhibitor of the heat shock protein 90” (J Med Chem, 2012)

Columns and labels:
Mus musculus [1] = test: Dose normalized AUC in CD-1 mouse at 100 mg/kg, po; assay type: ADME, organism-based; set-up: dose 100 mg/kg, route oral; conditions: in vivo
[2] = Tmax in CD-1 mouse at 100 mg/kg, po; assay type: ADME, organism-based; set-up: dose 100 mg/kg, route oral; conditions: in vivo
[3] = Initial Cmax in CD-1 mouse at 100 mg/kg, po; assay type: ADME, organism-based; set-up: dose 100 mg/kg, route oral; conditions: in vivo
[4] = Apparent permeability from apical to basolateral side of human Caco2 cells; assay type: ADME, cell-based; conditions: Caco-2
[5] = Half life in CD-1 mouse at 25 mg/kg, po; assay type: ADME, organism-based; set-up: dose 25 mg/kg, route oral; conditions: in vivo
Mus musculus [6] = test: Dose normalized AUC in CD-1 mouse at 25 mg/kg, po; assay type: ADME, organism-based; set-up: dose 25 mg/kg, route oral; conditions: in vivo
[7] = AUC in CD-1 mouse at 25 mg/kg, po; assay type: ADME, organism-based; set-up: dose 25 mg/kg, route oral; conditions: plasma
[8] = Tmax in CD-1 mouse at 25 mg/kg, po; assay type: ADME, organism-based; set-up: dose 25 mg/kg, route oral; conditions: in vivo
[9] = Intrinsic clearance in human liver microsomes; assay type: ADME, Microsome; conditions: read-out: CLH
[10] = Intrinsic clearance in rat liver microsomes; assay type: ADME, Microsome; conditions: read-out: CLH
[11] = Intrinsic clearance in mouse liver microsomes; assay type: ADME, Microsome; conditions: read-out: CLH
[12] = Initial Cmax in CD-1 mouse at 25 mg/kg, po; assay type: ADME, organism-based; set-up: dose 25 mg/kg, route oral; conditions: in vivo
[13] = Toxicity in po dosed mouse administered as a single dose; assay type: organism-based; conditions: in vivo
[14] = Half life in CD-1 mouse at 5 mg/kg, iv; assay type: ADME, organism-based; set-up: dose 5 mg/kg, route intravenous; conditions: in vivo
Mus musculus [15] = test: Dose normalized AUC in CD-1 mouse at 5 mg/kg, iv; assay type: ADME, organism-based; set-up: dose 5 mg/kg, route intravenous; conditions: in vivo
[16] = AUC in CD-1 mouse at 5 mg/kg, iv; assay type: ADME, organism-based; set-up: dose 5 mg/kg, route intravenous; conditions: plasma
[17] = Initial Cmax in CD-1 mouse at 5 mg/kg, iv; assay type: ADME, organism-based; set-up: dose 5 mg/kg, route intravenous; conditions: in vivo
[18] = Toxicity in po dosed human N87 cell xenografted athymic mouse administered as qd for 5 days per week for 4 weeks; assay type: organism-based, NCI-N87; conditions: in vivo
Serum = test: Drug uptake in human NCI-N87 cell xenografted mouse serum at 6 to 12 mg/kg, po administered as a single dose at 6 to 24 hrs; assay type: ADME, organism-based; set-up: route oral; conditions: in vivo
Brain = test: Drug uptake in human NCI-N87 cell xenografted mouse brain at 6 to 12 mg/kg, po administered as a single dose at 6 to 24 hrs; assay type: ADME, organism-based; set-up: route oral; conditions: in vivo
Spleen = test: Drug uptake in human NCI-N87 cell xenografted mouse spleen at 6 to 12 mg/kg, po administered as a single dose at 6 to 24 hrs; assay type: ADME, organism-based; set-up: route oral; conditions: in vivo
NCI-N87 = test: Drug uptake in human NCI-N87 cells xenografted in mouse at 6 to 12 mg/kg, po administered as a single dose at 6 to 24 hrs; assay type: ADME, organism-based; set-up: route oral; conditions: in vivo
[19] = Half life in DBA1 mouse spleen at 5 mg/kg, po; assay type: ADME, organism-based; set-up: dose 5 mg/kg, route oral
[20] = Half life in DBA1 mouse lymph nodes at 5 mg/kg, po; assay type: ADME, organism-based, Lymph node; set-up: dose 5 mg/kg, route oral
[21] = Half life in DBA1 mouse brain at 5 mg/kg, po; assay type: ADME, organism-based; set-up: dose 5 mg/kg, route oral
[22] = Half life in DBA1 mouse plasma at 5 mg/kg, po; assay type: ADME, organism-based; set-up: dose 5 mg/kg, route oral
[23] = AUC (infinity) in DBA1 mouse spleen at 5 mg/kg, po; assay type: ADME, organism-based; set-up: dose 5 mg/kg, route oral, time infinity
[24] = AUC (infinity) in DBA1 mouse lymph nodes at 5 mg/kg, po; assay type: ADME, organism-based, Lymph node; set-up: time infinity, dose 5 mg/kg, route oral
[25] = AUC (infinity) in DBA1 mouse brain at 5 mg/kg, po; assay type: ADME, organism-based; set-up: dose 5 mg/kg, route oral, time infinity
[26] = AUC (infinity) in DBA1 mouse plasma at 5 mg/kg, po; assay type: ADME, organism-based; set-up: dose 5 mg/kg, route oral, time infinity
[27] = Tmax in DBA1 mouse lymph nodes at 5 mg/kg, po; assay type: ADME, organism-based, Lymph node; set-up: dose 5 mg/kg, route oral
[28] = Tmax in DBA1 mouse plasma at 5 mg/kg, po; assay type: ADME, organism-based; set-up: dose 5 mg/kg, route oral
[29] = Tmax in DBA1 mouse brain at 5 mg/kg, po; assay type: ADME, organism-based; set-up: dose 5 mg/kg, route oral
[30] = Cmax in DBA1 mouse spleen at 5 mg/kg, po; assay type: ADME, organism-based; set-up: dose 5 mg/kg, route oral
[31] = Cmax in DBA1 mouse lymph nodes at 5 mg/kg, po; assay type: ADME, organism-based, Lymph node; set-up: dose 5 mg/kg, route oral
[32] = Cmax in DBA1 mouse plasma at 5 mg/kg, po; assay type: ADME, organism-based; set-up: dose 5 mg/kg, route oral
[33] = Cmax in DBA1 mouse brain at 5 mg/kg, po; assay type: ADME, organism-based; set-up: dose 5 mg/kg, route oral

**Q.** With `COc1c(C)cnc(Cn2cnc3c(Cl)nc(N)nc32)c1C` [BIIB021] as the molecule, how does the AUC/dose (Mus musculus [1]) read?
**A.** 48 ng·h/mL/mg/kg

**Q.** What about the Tmax [2] of the same molecule?
**A.** 4.98 min

**Q.** And the Cmax [3]?
**A.** 10000 ng/mL

**Q.** What about the Papp A→B [4] of the same molecule?
**A.** 20 ×10⁻⁶ cm/s

**Q.** Which results are given for `CC1(C)CC(=O)c2c(C(F)(F)F)nn(-c3ccc(C(N)=O)c(N[C@H]4CC[C@H](O)CC4)c3)c2C1` [SNX-2112]?
**A.** half-life [5]: 2.9 h; AUC/dose (Mus musculus [6]): 341 ng·h/mL/mg/kg; AUC [7]: 8520 ng·h/mL; Tmax [8]: 1 h; CLint scaled [9]: 54 mL/min/kg; CLint scaled [10]: 54 mL/min/kg; CLint scaled [11]: 301 mL/min/kg; Papp A→B [4]: 1.1 ×10⁻⁶ cm/s; Cmax [12]: 1720 ng/mL

**Q.** Which MTD [13] does the source give for `C=CCNC1=C2C[C@@H](C)C[C@H](OC)[C@H](O)[C@@H](C)/C=C(\C)[C@H](OC(N)=O)[C@@H](OC)/C=C\C=C(/C)C(=O)NC(=CC1=O)C2=O` [TANESPIMYCIN] here?
**A.** 60 mg/kg

**Q.** With `CCNC(=O)c1noc(-c2cc(C(C)C)c(O)cc2O)c1-c1ccc(CN2CCOCC2)cc1` [LUMINESPIB] as the molecule, how does the half-life [14] read?
**A.** 6.6 h

**Q.** And the AUC/dose (Mus musculus [15])?
**A.** 481 ng·h/mL/mg/kg

**Q.** And the AUC [16]?
**A.** 2410 ng·h/mL

**Q.** And the Cmax [17]?
**A.** 2180 ng/mL

**Q.** And the CLint scaled [9]?
**A.** 39 mL/min/kg

**Q.** And the CLint scaled [10]?
**A.** 219 mL/min/kg

**Q.** What about the Papp A→B [4] of the same molecule?
**A.** 1.9 ×10⁻⁶ cm/s

**Q.** For `COc1c(C)cnc(Cn2cc(C#CCC(C)(C)O)c3c(Cl)nc(N)nc32)c1C`, which MTD at 4 weeks [18] is on record?
**A.** 10 mg/kg

**Q.** And the Drug uptake (Serum)?
**A.** Active

**Q.** And the Drug uptake (Brain)?
**A.** Active

**Q.** What about the Drug uptake (Spleen) of the same molecule?
**A.** Active

**Q.** What about the Drug uptake (NCI-N87) of the same molecule?
**A.** Active

**Q.** And the MTD [13]?
**A.** 30 mg/kg

**Q.** What about the half-life [19] of the same molecule?
**A.** 2 h

**Q.** What about the half-life [20] of the same molecule?
**A.** 1.6 h

**Q.** And the half-life [21]?
**A.** 2.1 h

**Q.** And the half-life [22]?
**A.** 1.2 h

**Q.** And the AUC(0-inf) [23]?
**A.** 8160 ng·h/mL

**Q.** What about the AUC(0-inf) [24] of the same molecule?
**A.** 5190 ng·h/mL

**Q.** What about the AUC(0-inf) [25] of the same molecule?
**A.** 4710 ng·h/mL

**Q.** What about the AUC(0-inf) [26] of the same molecule?
**A.** 2120 ng·h/mL

**Q.** What about the Tmax [27] of the same molecule?
**A.** 1 h

**Q.** What about the Tmax [28] of the same molecule?
**A.** 4.98 min

**Q.** And the Tmax [29]?
**A.** 0.5 h

**Q.** And the Cmax [30]?
**A.** 1890 ng/mL

**Q.** And the Cmax [31]?
**A.** 2140 ng/mL

**Q.** What about the Cmax [32] of the same molecule?
**A.** 835 ng/mL

**Q.** What about the Cmax [33] of the same molecule?
**A.** 1450 ng/mL

**Q.** What about the half-life [5] of the same molecule?
**A.** 1.5 h

**Q.** And the AUC/dose (Mus musculus [6])?
**A.** 177 ng·h/mL/mg/kg

**Q.** What about the AUC [7] of the same molecule?
**A.** 4420 ng·h/mL

**Q.** What about the Tmax [8] of the same molecule?
**A.** 0.5 h

**Q.** And the CLint scaled [9]?
**A.** 119 mL/min/kg

**Q.** And the CLint scaled [10]?
**A.** 276 mL/min/kg

**Q.** And the CLint scaled [11]?
**A.** 727 mL/min/kg

**Q.** What about the Papp A→B [4] of the same molecule?
**A.** 34.7 ×10⁻⁶ cm/s

**Q.** And the Cmax [12]?
**A.** 1560 ng/mL
